Results from publication PMC9319837, “Microscale Thermophoresis and Molecular Modelling to Explore the Chelating Drug Transportation in the Milk to Infant” (Molecules, 2022).

Biological target: T1, human Lf (lactoferrin) (Homo sapiens, UniProt P02788)
T1 construct: gene LTF; full-length, label-free
Experiment: label-free microscale thermophoresis (intrinsic fluorescence, […] nm)
Assay type: binding
Settings: 0.1 M Tris pH 7.4; Lf 120 nM; CP20 7 nM to 250 μM; 10 min equilibration; iron saturation of Lf not stated

T1 sequence (P02788 20-710): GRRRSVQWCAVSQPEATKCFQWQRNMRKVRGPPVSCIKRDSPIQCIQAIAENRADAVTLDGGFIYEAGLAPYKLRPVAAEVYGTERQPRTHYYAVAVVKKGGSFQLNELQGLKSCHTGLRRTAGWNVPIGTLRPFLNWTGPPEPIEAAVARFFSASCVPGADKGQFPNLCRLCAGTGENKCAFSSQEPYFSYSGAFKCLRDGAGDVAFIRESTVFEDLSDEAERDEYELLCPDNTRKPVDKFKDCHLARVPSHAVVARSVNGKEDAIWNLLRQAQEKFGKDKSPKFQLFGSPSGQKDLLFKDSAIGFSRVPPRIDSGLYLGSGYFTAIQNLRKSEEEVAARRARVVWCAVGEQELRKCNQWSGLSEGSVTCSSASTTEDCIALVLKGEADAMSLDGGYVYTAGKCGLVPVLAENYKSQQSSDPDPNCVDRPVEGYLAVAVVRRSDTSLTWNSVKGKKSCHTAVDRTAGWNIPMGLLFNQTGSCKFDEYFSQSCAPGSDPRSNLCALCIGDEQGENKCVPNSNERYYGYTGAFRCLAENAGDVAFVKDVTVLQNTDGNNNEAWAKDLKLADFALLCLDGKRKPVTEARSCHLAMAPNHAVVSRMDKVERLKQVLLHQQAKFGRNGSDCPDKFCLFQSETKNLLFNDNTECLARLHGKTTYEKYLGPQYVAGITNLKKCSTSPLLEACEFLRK

Cc1c(O)c(=O)ccn1C [deferiprone, 1,2-dimethyl-3-hydroxypyrid-4-one]
Kd: 8.9 × 10^−6 ± 1.6 Molar
